Experimental data: US11780830B2, “Triazolone derivatives or salts thereof and pharmaceutical compositions comprising the same” (YUHAN CORPORATION, priority 2018, dated 2023)
Counter-ions that a name gives are not always drawn.

Key:
Assay type in all cases: biochemical
[1] = target: T1, recombinant human MAO-A (monoamine oxidase-A) (Homo sapiens, UniProt P21397); experiment: Activity on recombinant human MAO-A, method similar to the VAP-1 assay; conditions: substrate 0.5 mM tyramine; read-out: Inhibitory Activity (IC50, nM) MAO-A
T1 construct: purchased Sigma-Aldrich
T1 sequence (P21397 1-527): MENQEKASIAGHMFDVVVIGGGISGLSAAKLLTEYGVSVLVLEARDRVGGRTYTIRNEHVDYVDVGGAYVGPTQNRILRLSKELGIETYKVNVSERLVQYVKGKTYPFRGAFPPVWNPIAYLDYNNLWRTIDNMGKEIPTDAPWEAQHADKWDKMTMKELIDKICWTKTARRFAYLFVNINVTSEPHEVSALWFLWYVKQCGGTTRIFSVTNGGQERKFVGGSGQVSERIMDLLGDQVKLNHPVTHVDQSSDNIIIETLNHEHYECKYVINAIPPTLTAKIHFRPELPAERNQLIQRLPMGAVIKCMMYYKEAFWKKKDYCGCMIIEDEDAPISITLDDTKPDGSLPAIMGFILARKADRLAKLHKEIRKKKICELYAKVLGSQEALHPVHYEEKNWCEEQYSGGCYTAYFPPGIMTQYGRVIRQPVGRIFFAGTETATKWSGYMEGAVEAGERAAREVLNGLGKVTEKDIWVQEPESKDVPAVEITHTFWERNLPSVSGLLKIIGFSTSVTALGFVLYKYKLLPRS
Summary of the method: (§1)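 Amplex Red/HRP coupled read-out of H2O2 with 0.5 mM tyramine for MAO-A or 1 mM benzylamine for MAO-B, following a 30-min compound–enzyme preincubation at 37° C. IC50 from percent inhibition of signal rate relative to uninhibited control.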

[2] = target: T2, recombinant human DAO (diamine oxidase) (Homo sapiens, UniProt P19801); experiment: Activity on recombinant human DAO, method similar to the VAP-1 assay; conditions: substrate 1 mM putrescine; read-out: Inhibitory Activity (IC50, nM) DAO
T2 construct: purchased R&D systems
T2 sequence (P19801 20-751): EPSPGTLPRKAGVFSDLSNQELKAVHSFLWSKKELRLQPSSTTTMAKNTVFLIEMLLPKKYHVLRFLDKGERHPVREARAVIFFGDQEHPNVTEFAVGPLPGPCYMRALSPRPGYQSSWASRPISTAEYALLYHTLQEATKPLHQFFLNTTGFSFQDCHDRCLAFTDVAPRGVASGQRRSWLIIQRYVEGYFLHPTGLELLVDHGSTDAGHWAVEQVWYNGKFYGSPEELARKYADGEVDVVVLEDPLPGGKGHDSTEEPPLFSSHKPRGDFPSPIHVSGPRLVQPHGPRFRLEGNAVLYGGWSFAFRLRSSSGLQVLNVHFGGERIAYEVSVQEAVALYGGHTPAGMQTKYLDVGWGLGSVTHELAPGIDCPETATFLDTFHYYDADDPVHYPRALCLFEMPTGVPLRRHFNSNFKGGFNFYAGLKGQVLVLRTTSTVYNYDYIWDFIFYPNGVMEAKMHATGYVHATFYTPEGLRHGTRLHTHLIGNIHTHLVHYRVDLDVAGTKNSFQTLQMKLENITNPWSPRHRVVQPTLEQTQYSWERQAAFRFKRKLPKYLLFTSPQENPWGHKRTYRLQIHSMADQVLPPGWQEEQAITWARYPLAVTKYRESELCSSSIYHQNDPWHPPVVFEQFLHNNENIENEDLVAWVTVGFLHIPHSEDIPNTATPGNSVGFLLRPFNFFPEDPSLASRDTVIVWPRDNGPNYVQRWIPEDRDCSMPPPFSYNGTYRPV
Summary of the method: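 Inhibition of recombinant human diamine oxidase (DAO, R&D systems) was assessed by the same approach as the VAP-1 assay, using 1 mM putrescine as substrate. Hydrogen peroxide formed was detected through an HRP-coupled Amplex Red reaction yielding fluorescent resorufin, read at 544 nm excitation and 590 nm emission. IC50 values came from four-parameter logistic fitting in GraphPad Prism.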

[3] = target: T3, recombinant human MAO-B (monoamine oxidase-B) (Homo sapiens, UniProt P27338); experiment: Activity on recombinant human MAO-B, method similar to the VAP-1 assay; conditions: substrate 1 mM benzylamine; read-out: Inhibitory Activity (IC50, nM) MAO-B
T3 construct: purchased Sigma-Aldrich
T3 sequence (P27338 1-520): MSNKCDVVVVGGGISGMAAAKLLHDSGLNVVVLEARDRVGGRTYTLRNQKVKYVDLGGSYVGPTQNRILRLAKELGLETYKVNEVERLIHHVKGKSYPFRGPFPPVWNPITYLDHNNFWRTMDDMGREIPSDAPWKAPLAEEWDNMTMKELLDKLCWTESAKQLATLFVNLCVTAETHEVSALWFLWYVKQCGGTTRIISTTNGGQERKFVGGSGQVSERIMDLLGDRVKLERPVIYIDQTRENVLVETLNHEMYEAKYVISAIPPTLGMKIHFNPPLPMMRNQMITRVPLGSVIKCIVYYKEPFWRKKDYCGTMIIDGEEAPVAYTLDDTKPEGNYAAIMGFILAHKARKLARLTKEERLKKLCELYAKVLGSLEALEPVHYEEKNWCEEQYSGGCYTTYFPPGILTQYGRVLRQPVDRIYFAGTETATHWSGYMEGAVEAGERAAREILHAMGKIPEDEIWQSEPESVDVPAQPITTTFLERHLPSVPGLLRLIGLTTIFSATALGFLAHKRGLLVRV
Summary of the method: as §1

[4] = target: T4, recombinant human VAP-1 (Homo sapiens, UniProt Q16853); experiment: Activity on recombinant human VAP-1, HRP-coupled Amplex Red hydrogen peroxide assay; conditions: substrate 1 mM benzylamine; compound incubated with enzyme at 37° C. for 30 minutes; pH 7.4; read-out: Inhibitory Activity (IC50, nM) human VAP-1
T4 construct: purchased R&D systems
T4 sequence (Q16853 1-763): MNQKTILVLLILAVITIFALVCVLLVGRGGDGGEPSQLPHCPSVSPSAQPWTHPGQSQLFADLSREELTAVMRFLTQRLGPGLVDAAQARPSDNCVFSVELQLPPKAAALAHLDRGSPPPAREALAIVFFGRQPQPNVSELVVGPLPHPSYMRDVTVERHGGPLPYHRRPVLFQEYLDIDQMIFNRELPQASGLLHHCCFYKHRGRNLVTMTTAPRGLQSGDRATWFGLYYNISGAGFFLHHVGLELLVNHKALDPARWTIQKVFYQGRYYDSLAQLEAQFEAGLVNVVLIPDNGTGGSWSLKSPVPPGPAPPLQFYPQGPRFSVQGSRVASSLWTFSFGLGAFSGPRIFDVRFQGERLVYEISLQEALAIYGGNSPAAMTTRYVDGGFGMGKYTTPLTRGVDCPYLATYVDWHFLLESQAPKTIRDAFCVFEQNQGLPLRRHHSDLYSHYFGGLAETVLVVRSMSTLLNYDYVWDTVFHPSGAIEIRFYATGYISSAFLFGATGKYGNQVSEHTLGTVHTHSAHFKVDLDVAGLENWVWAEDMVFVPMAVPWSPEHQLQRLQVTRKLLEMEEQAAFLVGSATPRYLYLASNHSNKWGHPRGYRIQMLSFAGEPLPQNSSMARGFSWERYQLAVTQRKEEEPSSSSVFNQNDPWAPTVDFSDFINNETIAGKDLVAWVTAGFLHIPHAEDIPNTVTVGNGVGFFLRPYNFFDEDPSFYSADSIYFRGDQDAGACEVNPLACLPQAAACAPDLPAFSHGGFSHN
Summary of the method: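 Dose-response IC50 determined from reduction in resorufin signal rate (544/590 nm, 1-2 h), with 30 min compound preincubation at 37 °C and 1 mM benzylamine as substrate.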

IC50 [1] [nM] | IC50 [2] [nM] | IC50 [3] [nM] | IC50 [4] [nM] | Structure (SMILES)
4400 | 1700 | 180 | 0.6 | NC/C(=C\F)Cn1ncn(Cc2ccc(/C=C/c3ccc(O)cc3)s2)c1=O [Example 116, 2-[(2E)-2-(aminomethyl)-3-fluoroprop-2-en-1-yl]-4-(5-[(E)-2-(4-hydroxyphenyl)ethenyl]thiophen-2-ylmethyl)-2,4-dihydro-3H-1,2,4-triazol-3-one hydrochloride]
93000 | 1200 | 270 | 1.3 | NC/C(=C\F)Cn1ncn(Cc2ccc(/C=C/c3ccc(F)cc3)s2)c1=O [Example 117, 2-[(2E)-2-(aminomethyl)-3-fluoroprop-2-en-1-yl]-4-(5-[(E)-2-(4-fluorophenyl)ethenyl]thiophen-2-ylmethyl)-2,4-dihydro-3H-1,2,4-triazol-3-one hydrochloride]
140000 | 560 | 58 | 1.1 | NC/C(=C\F)Cn1ncn(Cc2ccc(/C=C/c3cccc(F)c3)s2)c1=O [Example 118, 2-[(2E)-2-(aminomethyl)-3-fluoroprop-2-en-1-yl]-4-(5-[(E)-2-(3-fluorophenyl)ethenyl]thiophen-2-ylmethyl)-2,4-dihydro-3H-1,2,4-triazol-3-one hydrochloride]
> 100000 | 860 | 1200 | 1.8 | NC/C(=C\F)Cn1ncn(Cc2ccc(/C=C/c3ccc(C(F)(F)F)cc3)s2)c1=O [Example 119, 2-[(E)-2-(aminomethyl)-3-fluoro-allyl]-4-[[5-[(E)-2-[4-(trifluoromethyl)phenyl]vinyl]-2-thienyl]methyl]-1,2,4-triazol-3-one hydrochloride]
16000 | 1100 | 340 | 6.2 | CN(C)c1ccc(/C=C/c2ccc(Cn3cnn(C/C(=C/F)CN)c3=O)s2)cc1 [Example 120, 2-[(E)-2-(aminomethyl)-3-fluoro-allyl]-4-[[5-[2-[4-(dimethylamino)phenyl]vinyl]-2-thienyl]methyl]-1,2,4-triazol-3-one]
> 100000 | 1800 | 290 | 1.2 | NC/C(=C\F)Cn1ncn(Cc2ccc(/C=C/c3ccsc3)s2)c1=O [Example 121, 2-[(E)-2-(aminomethyl)-3-fluoro-allyl]-4-[[5-[(E)-2-(3-thienyl)vinyl]-2-thienyl]methyl]-1,2,4-triazol-3-one hydrochloride]

The next lines start with the compound.

Structure (SMILES) | IC50 [1] [nM] | IC50 [2] [nM] | IC50 [3] [nM] | IC50 [4] [nM]
NC/C(=C\F)Cn1ncn(Cc2ccc(-c3ccc4c(c3)CCCN4)s2)c1=O [Example 110, 2-[(2E)-2-(aminomethyl)-3-fluoroprop-2-en-1-yl]-4-[5-(1,2,3,4-tetrahydroquinolin-6-yl)thiophen-2-yl]methyl-2,4-dihydro-3H-1,2,4-triazol-3-one hydrochloride] | 32000 | 220 | 370 | 0.9
NC/C(=C\F)Cn1ncn(Cc2ccc(-c3cnc4c(c3)CCCN4)s2)c1=O [Example 111, 2-[(E)-2-(aminomethyl)-3-fluoro-allyl]-4-[[5-(5,6,7,8-tetrahydro-1,8-naphthyridin-3-yl)-2-thienyl]methyl]-1,2,4-triazol-3-one] | > 100000 | 530 | 5900 | 0.6
CNc1ncc2cc(-c3ccc(Cn4cnn(C/C(=C/F)CN)c4=O)s3)ccc2n1 [Example 112, 2-[(2E)-2-(aminomethyl)-3-fluoroprop-2-en-1-yl]-4-(5-[2-(methylamino)quinazolin-6-yl]thiophen-2-ylmethyl)-2,4-dihydro-3H-1,2,4-triazol-3-one hydrochloride] | > 100000 | 310 | 950 | 0.9
NC/C(=C\F)Cn1ncn(Cc2ccc(-c3cccc4ncccc34)s2)c1=O [Example 113, 2-[(2E)-2-(aminomethyl)-3-fluoroprop-2-en-1-yl]-4-[5-(quinolin-5-yl)thiophen-2-yl]methyl-2,4-dihydro-3H-1,2,4-triazol-3-one hydrochloride] | > 100000 | 340 | 160 | 0.8
NC/C(=C\F)Cn1ncn(Cc2ccc(-c3cccc4cnccc34)s2)c1=O [Example 114, 2-[(2E)-2-(aminomethyl)-3-fluoroprop-2-en-1-yl]-4-[5-(isoquinolin-5-yl)thiophen-2-yl]methyl-2,4-dihydro-3H-1,2,4-triazol-3-one hydrochloride] | 143000 | 110 | 23 | 0.3
NC/C(=C\F)Cn1ncn(Cc2ccc(-c3c[nH]c4ncccc34)s2)c1=O [Example 115, 2-[(2E)-2-(aminomethyl)-3-fluoroprop-2-en-1-yl]-4-[5-(1H-pyrrolo[2,3-b]pyridin-3-yl)thiophen-2-yl]methyl-2,4-dihydro-3H-1,2,4-triazol-3-one hydrochloride] | > 100000 | 860 | 120 | 0.7
